Laboratory results taken from ChEMBL document CHEMBL3885881, “DrugMatrix”.

Species on record: Rattus norvegicus
Assay: DrugMatrix - Regimen: Daily Repeat
Format: toxicity, organism-based, Sprague-Dawley
Parameters: regimen Daily Repeat, gender Male, age 6-8 weeks
Conditions: in vivo, iv, vehicle 100 % SALINE; for ABSOLUTE BASOPHIL / ABSOLUTE EOSINOPHIL / ABSOLUTE LYMPHOCYTE / ABSOLUTE MONOCYTE / ABSOLUTE SEGMENTED NEUTROPHIL / BASOPHIL / EOSINOPHIL / ERYTHROCYTE COUNT / HEMATOCRIT / HEMOGLOBIN / LEUKOCYTE COUNT / LYMPHOCYTE / MEAN CORPUSCULAR HEMOGLOBIN / MEAN CORPUSCULAR HEMOGLOBIN CONCENTRATION / MEAN CORPUSCULAR VOLUME / MONOCYTE / NEUTROPHIL / NUCLEATED RED BLOOD CELLS / PLATELET COUNT: tissue Blood; for ALANINE AMINOTRANSFERASE / ALBUMIN / ALKALINE PHOSPHATASE / ASPARTATE AMINOTRANSFERASE / BLOOD UREA NITROGEN / CARBON DIOXIDE / CHLORIDE / CHOLESTEROL / CREATINE PHOSPHOKINASE / CREATININE / GLUCOSE / LACTATE DEHYDROGENASE / LIPASE / PHOSPHORUS / POTASSIUM / SODIUM / TOTAL BILIRUBIN / TOTAL PROTEIN / URIC ACID: tissue Plasma
[1] = 0 mg/kg, 72 h, dose level Control, time 3 day
[2] = 0 mg/kg, 120 h, dose level Control, time 5 day
[3] = 0.08 mg/kg, 72 h, dose level Low, time 3 day

CC[C@]1(O)C[C@@H]2CN(CCc3c([nH]c4ccccc34)[C@@](C(=O)OC)(c3cc4c(cc3OC)N(C)[C@H]3[C@@](O)(C(=O)OC)[C@H](OC(C)=O)[C@]5(CC)C=CCN6CC[C@]43[C@@H]65)C2)C1 [VINBLASTINE]
ABSOLUTE BASOPHIL [1]: 0 CELLS/uL | ABSOLUTE EOSINOPHIL [1]: 21.67 CELLS/uL | ABSOLUTE LYMPHOCYTE [1]: 10193.67 CELLS/uL | ABSOLUTE MONOCYTE [1]: 165.83 CELLS/uL | ABSOLUTE SEGMENTED NEUTROPHIL [1]: 702.17 CELLS/uL | BASOPHIL [1]: 0% | EOSINOPHIL [1]: 0.17% | ERYTHROCYTE COUNT [1]: 5.39 x10E6/uL | HEMATOCRIT [1]: 34.62% | HEMOGLOBIN [1]: 13.8 G/DL | LEUKOCYTE COUNT [1]: 11.08 x10E3/uL | LYMPHOCYTE [1]: 91.83% | MEAN CORPUSCULAR HEMOGLOBIN [1]: 25.68 pg | MEAN CORPUSCULAR HEMOGLOBIN CONCENTRATION [1]: 39.9 G/DL | MEAN CORPUSCULAR VOLUME [1]: 64.37 fL | MONOCYTE [1]: 1.5% | NEUTROPHIL [1]: 6.5% | NUCLEATED RED BLOOD CELLS [1]: 0 /100WBC | PLATELET COUNT [1]: 1202.83 x10E3/uL | ALANINE AMINOTRANSFERASE [1]: 55.5 u/L | ALBUMIN [1]: 4.22 G/DL | ALKALINE PHOSPHATASE [1]: 406.83 u/L | ASPARTATE AMINOTRANSFERASE [1]: 101.5 u/L | BLOOD UREA NITROGEN [1]: 13.5 mg/dL | CARBON DIOXIDE [1]: 30.33 mmol/L | CHLORIDE [1]: 102.17 MEQ/L | CHOLESTEROL [1]: 63.67 mg/dL | CREATINE PHOSPHOKINASE [1]: 732.67 u/L | CREATININE [1]: 0.2 mg/dL | GLUCOSE [1]: 157 mg/dL | LACTATE DEHYDROGENASE [1]: 442.5 u/L | LIPASE [1]: 10.83 u/L | PHOSPHORUS [1]: 12.68 mg/dL | POTASSIUM [1]: 5.67 MEQ/L | SODIUM [1]: 144 MEQ/L | TOTAL BILIRUBIN [1]: 0.15 mg/dL | TOTAL PROTEIN [1]: 6.02 G/DL | URIC ACID [1]: 1.55 mg/dL | ABSOLUTE BASOPHIL [2]: 0 CELLS/uL | ABSOLUTE EOSINOPHIL [2]: 17 CELLS/uL | ABSOLUTE LYMPHOCYTE [2]: 11849.17 CELLS/uL | ABSOLUTE MONOCYTE [2]: 69.83 CELLS/uL | ABSOLUTE SEGMENTED NEUTROPHIL [2]: 730.67 CELLS/uL | BASOPHIL [2]: 0% | EOSINOPHIL [2]: 0.17% | ERYTHROCYTE COUNT [2]: 5.93 x10E6/uL | HEMATOCRIT [2]: 37.42% | HEMOGLOBIN [2]: 14.4 G/DL | LEUKOCYTE COUNT [2]: 12.67 x10E3/uL | LYMPHOCYTE [2]: 93.17% | MEAN CORPUSCULAR HEMOGLOBIN [2]: 24.32 pg | MEAN CORPUSCULAR HEMOGLOBIN CONCENTRATION [2]: 38.5 G/DL | MEAN CORPUSCULAR VOLUME [2]: 63.08 fL | MONOCYTE [2]: 0.5% | NEUTROPHIL [2]: 6.17% | NUCLEATED RED BLOOD CELLS [2]: 0 /100WBC | PLATELET COUNT [2]: 1170.5 x10E3/uL | ALANINE AMINOTRANSFERASE [2]: 51 u/L | ALBUMIN [2]: 4.12 G/DL | ALKALINE PHOSPHATASE [2]: 392.67 u/L | ASPARTATE AMINOTRANSFERASE [2]: 81.67 u/L | BLOOD UREA NITROGEN [2]: 16.17 mg/dL | CARBON DIOXIDE [2]: 30.67 mmol/L | CHLORIDE [2]: 100.5 MEQ/L | CHOLESTEROL [2]: 64.83 mg/dL | CREATINE PHOSPHOKINASE [2]: 242.67 u/L | CREATININE [2]: 0.2 mg/dL | GLUCOSE [2]: 186.83 mg/dL | LACTATE DEHYDROGENASE [2]: 188 u/L | LIPASE [2]: 10.83 u/L | PHOSPHORUS [2]: 11.67 mg/dL | POTASSIUM [2]: 5.51 MEQ/L | SODIUM [2]: 142.55 MEQ/L | TOTAL BILIRUBIN [2]: 0.22 mg/dL | TOTAL PROTEIN [2]: 6.08 G/DL | URIC ACID [2]: 1.85 mg/dL | ABSOLUTE BASOPHIL [3]: 0 CELLS/uL | ABSOLUTE EOSINOPHIL [3]: 42 CELLS/uL | ABSOLUTE LYMPHOCYTE [3]: 6254.33 CELLS/uL | ABSOLUTE MONOCYTE [3]: 40 CELLS/uL | ABSOLUTE SEGMENTED NEUTROPHIL [3]: 297 CELLS/uL | BASOPHIL [3]: 0% | EOSINOPHIL [3]: 0.67% | ERYTHROCYTE COUNT [3]: 4.48 x10E6/uL | HEMATOCRIT [3]: 28.87% | HEMOGLOBIN [3]: 11.63 G/DL | LEUKOCYTE COUNT [3]: 6.63 x10E3/uL | LYMPHOCYTE [3]: 94.33% | MEAN CORPUSCULAR HEMOGLOBIN [3]: 26 pg | MEAN CORPUSCULAR HEMOGLOBIN CONCENTRATION [3]: 40.33 G/DL | MEAN CORPUSCULAR VOLUME [3]: 64.43 fL | MONOCYTE [3]: 0.67% | NEUTROPHIL [3]: 4.33% | NUCLEATED RED BLOOD CELLS [3]: 0 /100WBC | PLATELET COUNT [3]: 825.33 x10E3/uL | ALANINE AMINOTRANSFERASE [3]: 47.67 u/L | ALBUMIN [3]: 4.1 G/DL | ALKALINE PHOSPHATASE [3]: 395.67 u/L | ASPARTATE AMINOTRANSFERASE [3]: 99 u/L | BLOOD UREA NITROGEN [3]: 14 mg/dL | CARBON DIOXIDE [3]: 32.33 mmol/L | CHLORIDE [3]: 103.33 MEQ/L | CHOLESTEROL [3]: 67.33 mg/dL | CREATINE PHOSPHOKINASE [3]: 526.33 u/L | CREATININE [3]: 0.17 mg/dL | GLUCOSE [3]: 135 mg/dL | LACTATE DEHYDROGENASE [3]: 170.67 u/L | LIPASE [3]: 10.33 u/L | PHOSPHORUS [3]: 11.9 mg/dL | POTASSIUM [3]: 6.35 MEQ/L | SODIUM [3]: 144.8 MEQ/L | TOTAL BILIRUBIN [3]: 0.17 mg/dL | TOTAL PROTEIN [3]: 5.6 G/DL | URIC ACID [3]: 1.13 mg/dL
